Reference: US20120015352A1, “METHOD OF DETERMINING SENSITIVITY OF HUMAN OR NON-HUMAN ANIMAL CELLS TO AN IAP ANTAGONIST” (Otto-von-Guericke-Universitat Magdeburg, priority 2009, published 2012)
Residues, ends and D or L forms follow the SMILES beside them. *: point of attachment. Cbz = O=C(OCc1ccccc1)*; CH2F = FC*

Tests used:
HaCaT cells [1] = assay: Immunofluorescence microscopy (Hoechst 33342, nuclear morphology); assay type: cell-based, human; conditions: zVAD-fmk 10 μM; for protection from cell death: CD95L 24 hrs
Method: Immunofluorescence microscopy. For detection of nuclear morphology, 5×10^4 cells of the respective cells were seeded per well in a 12-well plate. Subsequently, cells were incubated with Hoechst 33342 (5 μg/ml) for 15 min at 37° C. immediately followed by phase contrast or fluorescence microscopy using a suitable instrument (Leica). Digital images were identically processed using appropriate software.

HaCaT cells [2] = assay: Cytotoxicity assay (crystal violet); assay type: cell-based, human
Method: (§1) Cytotoxicity assay. Crystal violet staining of attached, living cells was performed 20-24 h after stimulation with the indicated concentrations of TRAIL or CD95L in 96 well plates in triplicate wells per condition as described^37. The optical density (OD) of control cultures was normalized to 100% compared to stimulated cells. For statistical analysis the standard error of mean (SEM) was determined for 3-7 independent experiments of each cell line and stimulatory condition.

A5-RT3 cells = assay: Cytotoxicity assay (crystal violet); assay type: cell-based, human
Method: as §1

TRAF2 [3] = biological target: T1, TRAF2 (human, UniProt Q12933 2-501); assay: caspase-8 co-immunoprecipitation (complex II), Western blot
T1 construct: Endogenous protein
T1 sequence (looked up): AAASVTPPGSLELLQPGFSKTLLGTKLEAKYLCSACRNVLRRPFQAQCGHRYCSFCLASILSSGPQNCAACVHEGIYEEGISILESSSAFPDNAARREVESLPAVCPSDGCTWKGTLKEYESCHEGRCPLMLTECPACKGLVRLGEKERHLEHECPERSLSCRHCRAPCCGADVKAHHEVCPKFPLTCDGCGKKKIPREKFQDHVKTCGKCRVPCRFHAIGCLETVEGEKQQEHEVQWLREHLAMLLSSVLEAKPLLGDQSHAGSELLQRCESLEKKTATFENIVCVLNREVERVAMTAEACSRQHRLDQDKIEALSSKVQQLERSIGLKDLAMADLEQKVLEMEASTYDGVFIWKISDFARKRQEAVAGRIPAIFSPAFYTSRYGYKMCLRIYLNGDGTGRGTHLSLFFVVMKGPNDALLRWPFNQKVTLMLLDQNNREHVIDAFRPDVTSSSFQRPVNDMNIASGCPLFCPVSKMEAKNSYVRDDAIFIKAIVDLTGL

TRAF2 [4] = biological target: T1, TRAF2; assay: CD95L-Fc ligand affinity precipitation of the CD95 DISC, Western blot
Method: (§2) Ligand affinity precipitation of Receptor complexes. For the precipitation of the CD95L DISC, 5×10⁶ cells were used for each condition. Cells were washed once with medium at 37° C. and subsequently preincubated for 1 h with 10 μM zVAD-fmk and, as indicated with 100 nM IAP inhibitor at 37° C. Subsequently cells were treated with 250 units/ml CD95L-Fc for 2 h or, for the unstimulated control, in the absence of ligands. Receptor complex formation was stopped by washing the monolayer four times with ice-cold PBS. Cells were lysed on ice by addition of 2 ml lysis buffer (30 mM Tris-HCl pH 7.5 at 21° C., 120 mM NaCl, 10% Glycerol, 1% Triton X-100, Complete® protease inhibitor cocktail (Roche Molecular Diagnostics, Mannheim, Germany)). After 30 min lysis on ice, the lysates were centrifuged two times at 20,000×g for 5 min and 30 min, respectively, to remove cellular debris. A minor fraction of these clear lysates were used to control for the input of the respective proteins. For the precipitation of the CD95 receptor and stimulation-dependent recruited proteins, Apo-1 IgG3 antibodies (kindly provided by P. H. Krammer) were added to the lysates prepared from non-stimulated as well as stimulated cells to precipitate the receptor-interacting proteins. […]

RIP1 = biological target: T2, RIP1 (human, UniProt Q13546 1-671); assay: CD95L-Fc ligand affinity precipitation of the DISC from control-infected HaCaT cells, Western blot
T2 construct: Endogenous protein; also called kinase RIP1; full length RIP1
T2 sequence (looked up): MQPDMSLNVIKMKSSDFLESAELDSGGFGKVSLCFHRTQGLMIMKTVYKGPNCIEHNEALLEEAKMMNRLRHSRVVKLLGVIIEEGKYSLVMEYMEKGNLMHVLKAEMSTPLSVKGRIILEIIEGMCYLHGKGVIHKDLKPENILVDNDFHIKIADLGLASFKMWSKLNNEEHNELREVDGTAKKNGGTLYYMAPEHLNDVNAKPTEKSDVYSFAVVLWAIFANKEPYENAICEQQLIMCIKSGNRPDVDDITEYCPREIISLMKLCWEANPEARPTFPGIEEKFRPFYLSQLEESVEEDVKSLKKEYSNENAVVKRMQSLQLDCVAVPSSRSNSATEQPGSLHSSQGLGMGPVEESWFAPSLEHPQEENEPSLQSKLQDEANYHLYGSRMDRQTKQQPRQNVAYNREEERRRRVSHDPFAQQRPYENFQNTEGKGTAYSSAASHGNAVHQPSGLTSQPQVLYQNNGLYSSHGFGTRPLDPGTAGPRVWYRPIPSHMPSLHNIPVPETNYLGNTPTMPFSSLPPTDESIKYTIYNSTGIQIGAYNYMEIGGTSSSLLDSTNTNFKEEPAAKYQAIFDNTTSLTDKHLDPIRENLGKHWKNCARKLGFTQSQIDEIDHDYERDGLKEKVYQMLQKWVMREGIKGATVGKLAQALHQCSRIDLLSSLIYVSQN
Method: as §2

A375 melanoma cells = assay: Fc-CD95L unit determination (killing of cells); assay type: cell-based; conditions: one unit = 1:500 dilution of stock Fc-CD95L supernatant
Method: Materials. […] B-actin Abs were from a suitable source. His-FLAG-TRAIL (HF-TRAIL) was produced as recently described^17. For expression of Fc-CD95L we used a construct recently published^57 (kindly provided by P. Schneider, Epalinges, Switzerland). One unit of Fc-CD95L was determined as a 1:500 dilution of the stock Fc-CD95L supernatant, and one unit/ml of Fc-CD95L supernatant was sufficient to kill 50 percent (LD50) of A375 melanoma cells, as recently described^58. […] Horseradish peroxidase (HRP)-conjugated goat anti-rabbit, goat anti rat IgG, goat anti-mouse IgG Abs and HRP-conjugated goat anti-mouse IgG1, IgG2a, IgG2b, and IgG1κ were obtained from Southern Biotechnology Associates (Birmingham, Ala.). TRAIL-R1 (HS 101), TRAIL-R2 (HS 201), mAbs for FACScan analysis of surface receptor expression were used as previously described^26 and are available from Alexis (San Diego, Calif.). CD95 Abs (Apo-1 IgG1 and IgG3a) were kindly provided by P. H. Krammer (German Cancer Research Center, Heidelberg, Germany). Cy5-conjugated Annexin V was purchased from Pharmingen (Hamburg, Germany). The IAP inhibitor (compound A) was provided by Tetralogic Pharmaceuticals (Malvern, Pa., USA). Compound A is exemplified in US20060194741, which is incorporated in its entirety by reference herein, and Compound A has the following structure: […]

With `COC(=O)C[C@H](NC(=O)[C@H](C)NC(=O)[C@@H](NC(=O)OCc1ccccc1)C(C)C)C(=O)CF` [zVAD-fmk] (Cbz-Val-Ala-Asp(OMe)-CH2F) the “protection of cellular morphology or DNA fragmentation” value (HaCaT cells [1]; CD95L 4 hrs, in the presence of IAP inhibitor) was “fully protected”, the “protection from cell death” value (HaCaT cells [1]; in the presence of IAPs (no IAP inhibitor)) was “complete protection” and the “protection from cell death” value (HaCaT cells [1]; with IAP inhibitor) was “did not protect”. For the same molecule, the “protection from death receptor-mediated cell death” value (HaCaT cells [2]; cFLIPS-expressing HaCaT, IAP inhibitor + CD95L, zVAD-fmk 10 μM) was “not protected”, the “block of TRAIL- or CD95L-mediated cell death” value (HaCaT cells [2]; zVAD-fmk 10 μM, in the presence of IAP inhibitor 100 nM) was “only partially blocked” and the “block of TRAIL- or CD95L-mediated cell death” value (HaCaT cells [2]; zVAD-fmk 10 μM, without IAP inhibitor, 24 hrs) was “fully blocked cell death”. The “protection from death ligand-mediated cell death” value (A5-RT3 cells; cFLIP-downregulated cells insensitive to IAP inhibitor, zVAD-fmk) was “fully protected”.

In the case of `CN1C(=O)C(Cc2c[nH]c3ccccc23)NC1=S` (stereo not drawn) [necrostatin-1], the “protection from CD95L-mediated cell death” value (HaCaT cells [2]; cFLIPS-expressing HaCaT, IAP inhibitor + CD95L, necrostatin-1 50 μM, 24 hrs) is reported as “fully protected”, the “protection from TRAIL- or CD95L-mediated cell death” value (HaCaT cells [2]; necrostatin-1 50 μM added to zVAD-fmk-protected cells, IAP inhibitor 100 nM) is reported as “fully recovered viability” and the “protection from death ligand-mediated cell death” value (HaCaT cells [2]; necrostatin-1 50 μM alone, no caspase inhibitor, IAP inhibitor 100 nM) is reported as “ineffective”. The “protection from death ligand-mediated cell death” value (A5-RT3 cells; cFLIP-shRNA A5-RT3 cells, necrostatin-1 50 μM, IAP inhibitor, CD95L) was “ineffective”.

B1: caspase-8 (enzyme, human, UniProt Q14790 1-479, looked up)
chain: MDFSRNLYDIGEQLDSEDLASLKFLSLDYIPQRKQEPIKDALMLFQRLQEKRMLEESNLSFLKELLFRINRLDLLITYLNTRKEEMERELQTPGRAQISAYRVMLYQISEEVSRSELRSFKFLLQEEISKCKLDDDMNLLDIFIEMEKRVILGEGKLDILKRVCAQINKSLLKIINDYEEFSKERSSSLEGSPDEFSNGEELCGVMTISDSPREQDSESQTLDKVYQMKSKPRGYCLIINNHNFAKAREKVPKLHSIRDRNGTHLDAGALTTTFEELHFEIKPHDDCTVEQIYEILKIYQLMDHSNMDCFICCILSHGDKGIIYGTDGQEAPIYELTSQFTGLKCPSLAGKPKVFFIQACQGDNYQKGIPVETDSEEQPYLEMDLSSPQTRYIPDEADFLLGMATVNNCVSYRNPAEGTWYIQSLCQSLRERCPRGDDILTILTEVNYEVSNKDDKKNMGKQMPQPTFTLRKKLVFPSD
notes: Endogenous protein in cell lysates; also called caspase-8 p43/41 (cleaved form seen in the DISC)
B1: no binding (TRAF2 [3]).

B2: CD95 (receptor, human, UniProt P25445 26-335, looked up)
chain: QVTDINSKGLELRKTVTTVETQNLEGLHHDGQFCHKPCPPGERKARDCTVNGDEPDCVPCQEGKEYTDKAHFSSKCRRCRLCDEGHGLEVEINCTRTQNTKCRCKPNFFCNSTVCEHCDPCTKCEHGIIKECTLTSNTKCKEEGSRSNLGWLCLLLLPIPLIVWVKRKEVQKTCRKHRKENQGSHESPTLNPETVAINLSDVDLSKYITTIAGVMTLSQVKGFVRKNGVNEAKIDEIKNDNVQDTAEQKVQLLRNWHQLHGKKEAYDTLIKDLKKANLCTLAEKIQTIILKDITSDSENSNFRNEIQSLV
notes: whole, on cells; recruitment to it may be indirect (through FADD); also called CD95 DISC; CD95 receptor
B2: no binding (TRAF2 [4]); binds (RIP1).

B3: Fc-CD95L: Fc-CD95L supernatant expressed from a published construct; death ligand (protein)
chain: EKKELRKVAHLTGKSNSRSMPLEWEDTYGIVLLSGVKYKKGGLVINETGLYFVYSKVYFRGQSCNNLPLSHKVYMRNSKYPQDLVMMEGKMMSYCTTGQMWARSSYLGAVFNLTSADHLYVNVSELSLVNFEESQTFFGLYKL
modifications: left off: a dimerising Fc or GST
notes: Fc-CD95L supernatant expressed from a published construct; death ligand
For B3, the “LD50 (kill 50 percent of cells)” value (A375 melanoma cells) was “one”.
